Like-named read-outs stand apart in the source and are kept apart here.
Assays:
Type in all cases: cell-based
K562 = assay: Differential nuclear staining (DNS) cytotoxicity assay; conditions: Homo sapiens, K562, 48 h
From the text: (§1) All cell lines were obtained commercially from ATCC (American Type Culture Collection). Several cancer and non-cancerous cell lines were used for this analysis. […] Solid tumor cancer cell lines included MDA-MB-231 (Adenocarcinoma; HTB-26) cultured in DMEM medium, HT-29 (Colorectal Adenocarcinoma; HTB-38) cultured in McCoy’s 5A medium, and COLO 205 (Colorectal Adenocarcinoma; CCL-222) cultured in RPMI-1640 medium. Non-cancerous cell lines included Hs27 (No disease, foreskin; CRL-1634) cultured in DMEM medium and MCF-10A (Fibrocystic Disease; CRL-10317) cultured in DMEM/F12 medium supplemented with 20 ng/ml epidermal growth factor, 0.5 μg/ml hydrocortisone, and 10 μg/ml insulin. Additionally, all media used for cell culture was supplemented with 10% heat-inactivated fetal bovine serum (FBS), and a mixture of 25 μg/ml amphotericin B, 1,000 U/ml penicillin, and 1,000 μg/ml streptomycin. The HL-60 cell line was supplemented with 20% FBS and the same antibiotic mixture described. All cell lines were grown in an incubator supplemented with 5% CO2 at 37 °C.
(§2) Cytotoxic activity was evaluated through the DNS assay [17, 18]. This assay involves labeling live and dead cells with two nucleic acid intercalators, Hoechst 33342 and propidium iodide (PI). Hoechst 33342 stains all cells (healthy and dead), but PI stains only dead or dying cells with a compromised cell membrane [17, 18]. For the experiment, each cell line was plated at a density of 10,000 cells per well (96-well plate) in 100 μl media and placed in the incubator overnight under cell culture conditions. Cells were then treated with varying concentrations of the compound of interest for 48 h. […] For quantitative analysis, images were segmented through the IN Cell Analyzer Workstation 3.2 software (GE Healthcare). […] Each compound concentration and each control were assessed in triplicate. […] SCI was calculated using the following equation: CC50 of the non-cancer cell line/CC50 of the cancer cell line [20].

CCRF-CEM = assay: as above; conditions: Homo sapiens, CCRF-CEM, 48 h
From the text: (§3) All cell lines were obtained commercially from ATCC (American Type Culture Collection). Several cancer and non-cancerous cell lines were used for this analysis. […] Solid tumor cancer cell lines included MDA-MB-231 (Adenocarcinoma; HTB-26) cultured in DMEM medium, HT-29 (Colorectal Adenocarcinoma; HTB-38) cultured in McCoy’s 5A medium, and COLO 205 (Colorectal Adenocarcinoma; CCL-222) cultured in RPMI-1640 medium. Non-cancerous cell lines included Hs27 (No disease, foreskin; CRL-1634) cultured in DMEM medium and MCF-10A (Fibrocystic Disease; CRL-10317) cultured in DMEM/F12 medium supplemented with 20 ng/ml epidermal growth factor, 0.5 μg/ml hydrocortisone, and 10 μg/ml insulin. Additionally, all media used for cell culture was supplemented with 10% heat-inactivated fetal bovine serum (FBS), and a mixture of 25 μg/ml amphotericin B, 1,000 U/ml penicillin, and 1,000 μg/ml streptomycin. […] All cell lines were grown in an incubator supplemented with 5% CO2 at 37 °C.
(§4) Cytotoxic activity was evaluated through the DNS assay [17, 18]. This assay involves labeling live and dead cells with two nucleic acid intercalators, Hoechst 33342 and propidium iodide (PI). Hoechst 33342 stains all cells (healthy and dead), but PI stains only dead or dying cells with a compromised cell membrane [17, 18]. For the experiment, each cell line was plated at a density of 10,000 cells per well (96-well plate) in 100 μl media and placed in the incubator overnight under cell culture conditions. Cells were then treated with varying concentrations of the compound of interest for 48 h. Two hours before incubation elapsed, 10 μl of a dye mixture consisting of phosphate-buffered saline (PBS), Hoechst 33342 (1 μg/ml final; Invitrogen, H1399), and PI (1 μg/ml final; Invitrogen, P1304MP) was added to each well. […] For quantitative analysis, images were segmented through the IN Cell Analyzer Workstation 3.2 software (GE Healthcare). […] Each compound concentration and each control were assessed in triplicate. […] SCI was calculated using the following equation: CC50 of the non-cancer cell line/CC50 of the cancer cell line [20].

KCL22 = assay: as above; conditions: Homo sapiens
From the text: as §1, §2

COLO 205 = assay: as above; conditions: Homo sapiens, COLO 205, 48 h
From the text: as §3, §4

MDA-MB-231 = assay: as above; conditions: Homo sapiens, MDA-MB-231, 48 h
From the text: as §3, §4

HL-60 = assay: as above; conditions: for CC50: Homo sapiens
Method: (§5) All cell lines were obtained commercially from ATCC (American Type Culture Collection). Several cancer and non-cancerous cell lines were used for this analysis. […] Non-cancerous cell lines included Hs27 (No disease, foreskin; CRL-1634) cultured in DMEM medium and MCF-10A (Fibrocystic Disease; CRL-10317) cultured in DMEM/F12 medium supplemented with 20 ng/ml epidermal growth factor, 0.5 μg/ml hydrocortisone, and 10 μg/ml insulin. Additionally, all media used for cell culture was supplemented with 10% heat-inactivated fetal bovine serum (FBS), and a mixture of 25 μg/ml amphotericin B, 1,000 U/ml penicillin, and 1,000 μg/ml streptomycin. The HL-60 cell line was supplemented with 20% FBS and the same antibiotic mixture described. All cell lines were grown in an incubator supplemented with 5% CO2 at 37 °C.
(§6) Cytotoxic activity was evaluated through the DNS assay [17, 18]. This assay involves labeling live and dead cells with two nucleic acid intercalators, Hoechst 33342 and propidium iodide (PI). Hoechst 33342 stains all cells (healthy and dead), but PI stains only dead or dying cells with a compromised cell membrane [17, 18]. For the experiment, each cell line was plated at a density of 10,000 cells per well (96-well plate) in 100 μl media and placed in the incubator overnight under cell culture conditions. Cells were then treated with varying concentrations of the compound of interest for 48 h. Two hours before incubation elapsed, 10 μl of a dye mixture consisting of phosphate-buffered saline (PBS), Hoechst 33342 (1 μg/ml final; Invitrogen, H1399), and PI (1 μg/ml final; Invitrogen, P1304MP) was added to each well. The IN Cell 2000 analyzer, a high-content analyzer (HCA), was used to image the plates (GE Healthcare). For quantitative analysis, images were segmented through the IN Cell Analyzer Workstation 3.2 software (GE Healthcare). […] Each compound concentration and each control were assessed in triplicate.
(§7) For the experiments conducted, the concentrations used correspond to either CC50 or CC50 × 2 in the specified cell line. […] Therefore, we used a CC10 and a CC30 concentration.

Jurkat = assay: as above; conditions: Homo sapiens, Jurkat, 48 h
From the text: as §1, §2

[1] = test system: nine tumorigenic cell lines; assay: DNS assay, summary over the cancer cell line panel; conditions: for CC50: 48 h, read-out: average CC50 towards the nine tumorigenic cell lines
Method: Several cancer and non-cancerous cell lines were used for this analysis. […] Additionally, all media used for cell culture was supplemented with 10% heat-inactivated fetal bovine serum (FBS), and a mixture of 25 μg/ml amphotericin B, 1,000 U/ml penicillin, and 1,000 μg/ml streptomycin. […] All cell lines were grown in an incubator supplemented with 5% CO2 at 37 °C.
Cytotoxic activity was evaluated through the DNS assay [17, 18]. […] For the experiment, each cell line was plated at a density of 10,000 cells per well (96-well plate) in 100 μl media and placed in the incubator overnight under cell culture conditions. Cells were then treated with varying concentrations of the compound of interest for 48 h. […] The IN Cell 2000 analyzer, a high-content analyzer (HCA), was used to image the plates (GE Healthcare). For quantitative analysis, images were segmented through the IN Cell Analyzer Workstation 3.2 software (GE Healthcare). […] Each compound concentration and each control were assessed in triplicate.

Ramos = assay: Differential nuclear staining (DNS) cytotoxicity assay; conditions: Homo sapiens, Ramos, 48 h
From the text: as §3, §4

HT-29 = assay: as above; conditions: Homo sapiens, HT-29, 48 h
From the text: as §3, §4

HL-60 cells [2] = assay: Cell cycle analysis with NIM-DAPI; conditions: HL-60, 72 h
Method: Controls included were a vehicle (0.1% v/v DMSO), positive (1 mM H2O2), and negative (untreated cells) control. Subsequently, cells were collected in flow cytometry tubes and centrifuged at 262g for 5 min. Then, the supernatant was removed, and the cell pellet was re-suspended in a mixture of 100 μl of PBS and 200 μl of NIM-DAPI. Samples were immediately read and analyzed through flow cytometry (Gallios & Kaluza Analysis Software; Beckman Coulter). Approximately 10,000 events were acquired per sample. Data are represented as plots that display peaks (Fig. 6e) which represent fragments of DNA (Sub-G0/1 phase), cells before they replicate DNA (G0/1 phase), active replication of DNA (S phase), and post-replicative stage while entering mitosis (G2M phase) [23].

ATF3 in HL-60 cells = assay: RT-qPCR gene expression; conditions: HL-60, 6 h, P3 […], P4 4 μM, P5 4 μM, normalised to ACTB, 2^−ΔΔCt
Method: (§8) After the incubation period elapsed, cell pellets were washed by centrifuging at 262g for 5 min and re-suspending in 1 ml of PBS. Dry cell pellets were used for RNA extraction. RNA was extracted immediately according to the manufacturer’s instructions of the RNeasy Mini Kit (Qiagen; 74104). A QIAshredder was used to lyse the cells, and the optional DNase I digestion was also accomplished. Three biological replicates were used for each treatment. RNA was stored at −80 °C overnight, then the RNA was used to synthesize cDNA using the RT^2 HT First Strand Kit (Qiagen; 330,411). The amount of RNA used per sample was 500 ng, which was quantified using a NanoDrop ND-1000 system (ThermoFisher Scientific). RNA was diluted using RNase-free water to obtain the desired concentration (500 ng) in 9 μl. As per the manufacturer’s protocol, we incubated 9 μl of the sample with 6 μl GE2 (gDNA elimination buffer) for 5 min at 37 °C, then we added 6 μl BC4 Reverse Transcriptase Mix and incubated for 15 min at 42 °C, 5 min at 95 °C and, finally, a 4 °C hold. […] For data analysis, gene expression levels were normalized to the housekeeping gene (ACTB) and quantified using the comparative Ct method (2^−ΔΔCt). Fold change differences were calculated by comparing gene expression levels of compound treatment versus vehicle control.

CHAC1 in HL-60 cells = assay: RT-qPCR gene expression; conditions: HL-60, 6 h, P3 […], P4 4 μM, P5 4 μM, normalised to ACTB, 2^−ΔΔCt
Method: as §8

[3] = Differential nuclear staining (DNS) cytotoxicity assay; conditions: human, Hs27 cells (non-cancerous) versus K562 cells (cancer); CC50 Hs27 / CC50 K562; read-out: SCI (Selective Cytotoxicity Index)
From the text: as §1, §2

[4] = as above; conditions: human, Hs27 cells (non-cancerous) versus CCRF-CEM cells (cancer); CC50 Hs27 / CC50 CCRF-CEM; read-out: SCI (Selective Cytotoxicity Index)
From the text: as §3, §4

HL-60 cells [5] = assay: Mitochondrial membrane potential (ΔΨm) polychromatic assay (JC-1); conditions: HL-60, 5 h, 4 μM
Method: The cationic JC-1 (5′,6,6′-tetrachloro-1,1′,3,3′-tetraethylben zimidazolylcarbocyanine iodide) dye can be used to monitor mitochondrial membrane potential (Invitrogen; M34152). A red signal (JC-1 aggregates) indicates an intact polarized mitochondrial membrane, while a green signal (JC-1 monomers) indicates a depolarized mitochondrial membrane. […] A vehicle, positive, and negative control (as previously described) were included as well. Following incubation, cells were collected and stained per the manufacturer’s instructions with a final concentration of 2 μM JC-1 dye. Samples were then examined utilizing flow cytometry (Gallios; Beckman Coulter). Analysis of the subsequent data was completed using Kaluza software (Kaluza Analysis Software; Beckman Coulter).

HL-60 cells [6] = assay: Reactive oxygen species (ROS) assay (carboxy-H2DCFDA); conditions: HL-60, 18 h
Method: Reactive oxygen species (ROS) generation can be quantified using the 6-carboxy-2',7'-dichlorodihydrofluorescein diacetate (carboxy-H2DCFDA) dye (Invitrogen; Molecular Probes, C400) [19, 22]. This non-fluorescent dye shifts to a green fluorescent form as oxidation, induced by ROS, occurs within the cell. Therefore, a green fluorescent signal, corresponding to the oxidized form of carboxy-H2DCFDA, indicates ROS generation. Cells (HL-60) were plated overnight at a density of 100,000 cells in 1 ml. […] Samples were collected, centrifuged at 262g for 5 min, and re-suspended in 1 ml PBS to remove the complete medium. Then, cells were loaded with a final concentration of 10 μM carboxy-H2DCFDA dye for 45 min at 37 °C. Following incubation with dye, cells were centrifuged at 262g for 5 min and re-suspended in 500 μl PBS. Then, samples were processed using flow cytometry (Gallios; Beckman Coulter). Data analysis was completed with the Kaluza software (Kaluza Analysis Software; Beckman Coulter). Controls used were the same as mentioned before (0.1% v/v DMSO, 1 mM H2O2, and untreated cells) with an additional unstained (not loaded with dye) control to observe the normal population of cells.

[7] = Differential nuclear staining (DNS) cytotoxicity assay; conditions: human, MCF-10A non-cancerous cells
From the text: as §1
Cytotoxic activity was evaluated through the DNS assay [17, 18]. […] For quantitative analysis, images were segmented through the IN Cell Analyzer Workstation 3.2 software (GE Healthcare). […] Each compound concentration and each control were assessed in triplicate.

[8] = DNS assay, summary over the non-cancerous cell lines; conditions: human, Hs27 and MCF-10A non-cancerous cells, mean of two non-cancerous cell lines, read-out: average CC50 towards Hs27 and MCF-10A
From the text: (§9) All cell lines were obtained commercially from ATCC (American Type Culture Collection). Several cancer and non-cancerous cell lines were used for this analysis. […] Solid tumor cancer cell lines included MDA-MB-231 (Adenocarcinoma; HTB-26) cultured in DMEM medium, HT-29 (Colorectal Adenocarcinoma; HTB-38) cultured in McCoy’s 5A medium, and COLO 205 (Colorectal Adenocarcinoma; CCL-222) cultured in RPMI-1640 medium. Non-cancerous cell lines included Hs27 (No disease, foreskin; CRL-1634) cultured in DMEM medium and MCF-10A (Fibrocystic Disease; CRL-10317) cultured in DMEM/F12 medium supplemented with 20 ng/ml epidermal growth factor, 0.5 μg/ml hydrocortisone, and 10 μg/ml insulin. Additionally, all media used for cell culture was supplemented with 10% heat-inactivated fetal bovine serum (FBS), and a mixture of 25 μg/ml amphotericin B, 1,000 U/ml penicillin, and 1,000 μg/ml streptomycin. The HL-60 cell line was supplemented with 20% FBS and the same antibiotic mixture described. […]
(§10) Cytotoxic activity was evaluated through the DNS assay [17, 18]. […] For quantitative analysis, images were segmented through the IN Cell Analyzer Workstation 3.2 software (GE Healthcare). […] Each compound concentration and each control were assessed in triplicate. […] SCI was calculated using the following equation: CC50 of the non-cancer cell line/CC50 of the cancer cell line [20].

[9] = Differential nuclear staining (DNS) cytotoxicity assay; conditions: human, Hs27 cells (non-cancerous) versus KCL22 cells (cancer); CC50 Hs27 / CC50 KCL22; read-out: SCI (Selective Cytotoxicity Index)
From the text: as §1, §2

HMOX-1 in HL-60 cells = assay: RT-qPCR gene expression; conditions: HL-60, 6 h, P3 […], P4 4 μM, P5 4 μM, normalised to ACTB, 2^−ΔΔCt, two independent experiments
Method: as §8

[10] = Differential nuclear staining (DNS) cytotoxicity assay; conditions: human, Hs27 cells (non-cancerous) versus COLO 205 cells (cancer); CC50 Hs27 / CC50 COLO 205; read-out: SCI (Selective Cytotoxicity Index)
From the text: as §3, §4

[11] = as above; conditions: human; CC50 MCF-10A / CC50 MDA-MB-231; read-out: SCI (Selective Cytotoxicity Index)
From the text: as §3, §4

[12] = test system: caspase-3 activation in HL-60 cells; assay: Caspase-3 assay (NucView 488); conditions: HL-60, 8 h; concentration not given
MYC in HL-60 cells = assay: RT-qPCR gene expression; conditions: HL-60, 6 h, P3 […], P4 4 μM, P5 4 μM, normalised to ACTB, 2^−ΔΔCt
Method: as §8

[13] = Differential nuclear staining (DNS) cytotoxicity assay; conditions: human, Hs27 cells (non-cancerous) versus HL-60 cells (cancer); CC50 Hs27 / CC50 HL-60; read-out: SCI (Selective Cytotoxicity Index)
Method: as §5, §6, §7

[14] = as above; conditions: human, Hs27 cells (non-cancerous) versus Jurkat cells (cancer); CC50 Hs27 / CC50 Jurkat; read-out: SCI (Selective Cytotoxicity Index)
From the text: as §1, §2

[15] = as above; conditions: human, Hs27 cells (non-cancerous) versus Ramos cells (cancer); CC50 Hs27 / CC50 Ramos; read-out: SCI (Selective Cytotoxicity Index)
From the text: as §3, §4

PMAIP1 in HL-60 cells = assay: RT-qPCR gene expression; conditions: HL-60, 6 h, P3 […], P4 4 μM, P5 4 μM, normalised to ACTB, 2^−ΔΔCt
Method: as §8

[16] = Differential nuclear staining (DNS) cytotoxicity assay; conditions: human, Hs27 cells (non-cancerous) versus HT-29 cells (cancer); CC50 Hs27 / CC50 HT-29; read-out: SCI (Selective Cytotoxicity Index)
From the text: as §3, §4

[17] = as above; conditions: human, Hs27 non-cancerous cells
From the text: as §9, §10

HL-60 cells [18] = assay: Annexin V-FITC assay (phosphatidylserine externalization); conditions: HL-60, 24 h, CC50 concentration (P3 […], P4 2 μM, P5 2 μM)
Method: The annexin V-FITC assay was used to evaluate the induction of apoptosis (Beckman Coulter; IM3546) [21]. HL-60 cells were seeded at a density of 100,000 cells in 1 ml complete medium. Cells were treated with the three compounds of interest for 24 h. […] Controls used were a vehicle control (0.1% v/v DMSO), an apoptosis-inducing positive control (1 mM H2O2), and an untreated cell negative control. Following treatment, cells were collected and stained with both PI and annexin V-FITC according to the manufacturer’s instructions (Beckman Coulter; IM3546). Samples were immediately read by flow cytometry (Gallios; Beckman Coulter). Data analysis was accomplished with Kaluza software (Kaluza Analysis Software; Beckman Coulter).

[19] = HL-60, concentration used for 72 h cell cycle analysis

Structure (SMILES): N[C@@H](Cc1ccc(N(CCCl)CCCl)cc1)C(=O)O [Melphalan, reference compound]
- CC50 (K562): 19600 nM
- CC50 (CCRF-CEM): 3170 nM
- CC50 (KCL22; KCL-22, 48 h): 81300 nM
- CC50 (COLO 205): 20400 nM
- CC50 (MDA-MB-231): 9230 nM
- CC50 (HL-60; HL-60, 48 h): 1570 nM
- CC50 (Jurkat): 1910 nM
- CC50 [1]: 17800 nM
- CC50 (Ramos): 2050 nM
- CC50 (HT-29): 21100 nM

Structure (SMILES): O=C1/C(=C/c2ccc(O)c(CN3CCOCC3)c2)CNC/C1=C\c1ccc(O)c(CN2CCOCC2)c1 [P5]
- increase in the percentage of cells arrested at the G2/M phase versus DMSO (HL-60 cells [2]; 0.4 μM): ~ 9%
- change in the percentage of cells in the S phase compared to DMSO (HL-60 cells [2]; printed as double the CC50 concentration): significant decrease
- fold-change difference of ATF3 expression versus vehicle (ATF3 in HL-60 cells): 204.56
- fold-change difference of CHAC1 expression versus vehicle (CHAC1 in HL-60 cells): 106.96
- selectivity ratio at 48 h [3]: 1.29
- CC50 (K562; DNS assay, read-out: CC50): 4250 nM
- CC50 (CCRF-CEM; DNS assay, read-out: CC50): 650 nM
- selectivity ratio at 48 h [4]: 8.42
- increase in the cell population with a depolarized mitochondrial membrane in comparison to DMSO (HL-60 cells [5]): ~ 10%
- increase of cells positive for ROS production compared to DMSO (HL-60 cells [6]; P3 […], P4 2 μM, P5 2 μM): ~ 38%
- increase of cells positive for ROS production compared to DMSO (HL-60 cells [6]; twice the concentration (P3 […], P4 4 μM, P5 4 μM)): ~ 65%
- CC50 at 48 h [7]: 2180 nM
- CC50 at 48 h [8]: 3840 nM
- selectivity ratio at 48 h [9]: 3.49
- CC50 (KCL22; KCL-22, KCL22, 48 h, DNS assay, read-out: CC50): 1570 nM
- fold-change difference of HMOX-1 expression versus vehicle (HMOX-1 in HL-60 cells): 2464.89
- CC50 (COLO 205; DNS assay, read-out: CC50): 800 nM
- selectivity ratio at 48 h [10]: 6.87
- CC50 (MDA-MB-231; DNS assay, read-out: CC50): 1740 nM
- selectivity ratio at 48 h [11]: 1.26
- cells with active caspase-3, as compared to DMSO [12]: ~ 49%
- fold-change difference of MYC expression versus vehicle (MYC in HL-60 cells): −4.15
- CC10 (HL-60; [19]): 400 nM
- CC30 (HL-60; [19]): 1200 nM
- CC50 (HL-60; HL-60, 48 h, DNS assay, read-out: CC50): 740 nM
- CC50 (HL-60; HL-60, value used to set treatment concentrations, read-out: CC50 in HL-60 (concentrations for cell death induction)): 2000 nM
- selectivity ratio at 48 h [13]: 7.47
- selectivity ratio at 48 h [14]: 6.05
- CC50 (Jurkat; DNS assay, read-out: CC50): 910 nM
- CC50 ([1]; DNS assay, mean over nine cell lines): 1520 nM
- times more potent than melphalan ([1]; ratio of average CC50 values, nine tumorigenic cell lines): 11.7
- selectivity ratio at 48 h [15]: 5.19
- CC50 (Ramos; DNS assay, read-out: CC50): 1060 nM
- fold-change difference of PMAIP1 expression versus vehicle (PMAIP1 in HL-60 cells): 79.50
- selectivity ratio at 48 h [16]: 2.85
- CC50 (HT-29; DNS assay, read-out: CC50): 1930 nM
- CC50 at 48 h [17]: 5500 nM
- increase of Annexin V-FITC-positive cells in comparison to DMSO (HL-60 cells [18]): ~ 30%

— publication PMC8786778 (Pharmacological reports : PR, 2021)
